Assay results from patent US8778974B2, “Trisubstituted 1,2,4 triazoles” (Janssen Pharmaceutica NV, priority 2008, dated 2014).

Biological target: T1, hα7-wt nAChR-expressing GH4Cl cells (Homo sapiens, UniProt P36544)
T1 construct: expressed in transfected cells
Experiment: Patch-clamp current recording (whole-cell), potentiation of choline 1 mM response, PAM type
Format: cell-based
Design: key to Pam type: Type 0 compounds minimally enhance the effect size of the current elicited by 1 mM choline.; Type 1 compounds enhance the effect size of the current elicited by 1 mM choline but minimally alter the kinetics of the receptor.; Type 2 compounds enhance the effect size of the current elicited by 1 mM choline while reducing the rate and/or the extent of desensitization.; Type 3 compounds enhance the effect size of the current elicited by 1 mM choline. When tested at higher concentrations up to 10 μM they completely inhibit desensitization, in particular a 1 mM choline application of 250 milliseconds.; Type 4 compounds allow for an initial desensitization of the receptor followed by a re-opening of the receptor during agonist application
Settings: for EC50: according to Ex. D.2, "<5" = no top plateau reached at maximal concentration, read-out: Potency (pEC50) (converted); for Pam type: patch-clamp current recording, 1 mM choline
Description: The compounds of the present invention are classified as type 1-4, based on qualitative kinetic properties, as determined by whole-cell voltage-clamp recordings. This classification is based on the effect of an α7 PAM compound, as described hereinbefore, on the signal elicited by an agonist application. In particular, said agonist is choline at a concentration of 1 mM. In a preferred experimental setting, said α7 PAM compound and choline are simultaneously applied to the cell, as described hereinafter. Desensitization is defined as the closure of the receptor upon activation during the application of the agonist in whole-cell voltage-clamp electrophysiology measurements seen as the reduction of the […] current after initial activation by the agonist.
The definition of the PAM types 1-4 is described hereinafter: • Type 0 compounds minimally enhance the effect size of the current elicited by 1 mM choline. • Type 1 compounds enhance the effect size of the current elicited by 1 mM choline but minimally alter the kinetics of the receptor. In particular, the rate and the extent of desensitization, elicited by the agonist, is not affected. The compound-modulated response to 1 mM choline, therefore, is a close to linear scaling of the 1 mM choline response in absence of the α7 PAM compound. • Type 2 compounds enhance the effect size of the current elicited by 1 mM choline while reducing the rate and/or the extent of desensitization. • Type 3 compounds enhance the effect size of the current elicited by 1 mM choline. […] At low-potency concentrations of the α7 PAM compound, the agonist-induced activation, which is followed by desensitization, can still be separated from the compound-induced re-opening as an initial inward current-maximum. At higher potency concentrations of the α7 PAM compound, the re-opening occurs faster than the closure due to desensitization so that the initial current-maximum disappears.
Patch-clamp Current Recording
Patch-clamp recording from mammalian cells has provided a powerful means of assessing the function of membrane-bound proteins thought to be subunits of ligand-gated ion channels. Activation of such proteins by endogenous or exogenous ligands cause opening of a pore associated with the receptor through which ions flow down their electrochemical gradient. In the case of the hα7-wt nAChR-expressing GH4Cl recombinant cell line the preferential permeability to calcium of this receptor means that calcium flows into the cell upon activation by ACh, choline and other nicotinic ligands giving rise to a calcium current. Since this receptor rapidly desensitizes in the presence of agonist it is important an application system is used which is capable of very rapid switching of solutions (<100 ms) to prevent partial or full desensitisation of receptor responses coincident with the time of agonist application. Consequently, a second convenient technique to assess the enhancement of nicotinic efficacy is patch-clamp recording from hα7-wt nAChR-expressing GH4Cl cells coupled with a rapid-application system.
• a) Assay buffers • The external recording solution consisted of 152 mM NaCl, 5 mM KCl, 1 mM MgCl2, 1 mM Calcium, 10 mM HEPES; pH 7.3. The internal recording solution consisted of 140 mM CsCl, 10 mM HEPES, 10 mM EGTA, 1 mM MgCl2, pH 7.3. • b) Patch-clamp recording was carried out using a Patch-clamp amplifier (Multiclamp 700A, Axon Instruments, Calif., USA). hα7-wt nAChR-expressing GH4Cl cells were patch-clamp in the whole cell configuration (Hamill et al, 1981) with a borosilicate glass electrode of 1.5-3 MΩ tip resistance when filled with the internal recording solution. Recordings were made on cells with membrane resistance >500 MΩ and more preferably 1GΩ and series resistance <15 MΩ with at least 60% series resistance compensation. […]

T1 sequence (P36544 23-502): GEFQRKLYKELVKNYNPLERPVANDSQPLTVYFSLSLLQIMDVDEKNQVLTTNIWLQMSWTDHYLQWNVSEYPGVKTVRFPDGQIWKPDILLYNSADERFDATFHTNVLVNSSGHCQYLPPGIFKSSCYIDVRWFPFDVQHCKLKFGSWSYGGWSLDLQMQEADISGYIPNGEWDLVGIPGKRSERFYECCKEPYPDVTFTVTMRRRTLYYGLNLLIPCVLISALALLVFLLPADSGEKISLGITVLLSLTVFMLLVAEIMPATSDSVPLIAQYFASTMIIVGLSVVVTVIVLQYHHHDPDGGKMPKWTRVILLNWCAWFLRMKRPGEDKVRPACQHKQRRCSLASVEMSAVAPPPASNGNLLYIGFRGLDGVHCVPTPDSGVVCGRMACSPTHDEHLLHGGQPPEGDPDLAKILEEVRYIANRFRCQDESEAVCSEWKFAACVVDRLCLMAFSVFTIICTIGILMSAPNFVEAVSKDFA

`CNC(=O)CCc1nc(Nc2ccc(F)c(F)c2)nn1-c1ccc2c(c1)OCCO2` [E2, 3-[(3,4-Difluorophenyl)amino]-1-(2,3-dihydro-1,4-benzodioxin-6-yl)-N-methyl-1H-1,2,4-triazole-5-propanamide] gave an EC50 of 1020 nM and a Pam type of 3.
Work on `CN(C)C(=O)CCc1nc(Nc2ccc(F)c(F)c2)nn1-c1ccc2c(c1)OCCO2` [E3, 3-[(3,4-Difluorophenyl)amino]-1-(2,3-dihydro-1,4-benzodioxin-6-yl)-N,N-dimethyl-1H-1,2,4-triazole-5-propanamide] yielded an EC50 of 43.7 nM and a Pam type of 4.
For `Cc1ncccc1-n1nc(Nc2cccc(OC(F)(F)F)c2)nc1CCC(=O)N(C)C` [E5, N,N-Dimethyl-1-(2-methyl-3-pyridinyl)-3-[[3-(trifluoromethoxy)phenyl]amino]-1H-1,2,4-triazole-5-propanamide], the EC50 was 1170 nM and the Pam type was 4.
`Cc1cc(-n2nc(Nc3ccc(F)c(C(F)(F)F)c3)nc2CCO)ccn1` [E16] showed an EC50 of 525 nM.
`CNC(=O)Cc1nc(Nc2ccc(F)c(F)c2)nn1-c1ccc2c(c1)OCCO2` [E36] showed an EC50 of 1740 nM and a Pam type of 4.
`CNC(=O)CCc1nc(Nc2ccc(F)c(F)c2)nn1-c1ccc(OC)cc1` [E43] showed an EC50 of 2000 nM and a Pam type of 2.
With `CNC(=O)CCc1nc(Nc2ccc(F)c(C(F)(F)F)c2)nn1-c1ccc(OC)cc1` [E44] the EC50 was 661 nM.
Work on `CNC(=O)CCc1nc(Nc2ccc(F)c(C(F)(F)F)c2)nn1-c1ccc(OC)c(OC)c1` [E46] yielded an EC50 of 1020 nM.
`CNC(=O)CCc1nc(Nc2ccc(F)c(F)c2)nn1-c1cccnc1` [E48] was tested, and the EC50 was greater than 10000 nM.
`CNC(=O)CCc1nc(Nc2ccc(F)c(F)c2)nn1-c1ccncc1` [E52] was tested, and the EC50 was greater than 30200 nM.
`CNC(=O)CCc1nc(Nc2ccc(F)c(C(F)(F)F)c2)nn1-c1ccc2c(c1)OCCO2` [E55] showed an EC50 of 525 nM and a Pam type of 4.
Molecule `COc1ccc(-n2nc(Nc3ccc(F)c(C(F)(F)F)c3)nc2CCC(=O)N(C)C)cc1` [E62] has an EC50 of 30.2 nM and a Pam type of 4.
`COc1ccc(-n2nc(Nc3ccc(F)c(F)c3)nc2CCC(=O)N(C)C)cc1` [E63] showed an EC50 of 60.3 nM and a Pam type of 4.
For `COc1ccc(-n2nc(Nc3ccc(F)c(F)c3)nc2CCC(=O)N(C)C)cc1OC` [E64], the EC50 was 525 nM and the Pam type was 4.
`COc1ccc(-n2nc(Nc3ccc(F)c(C(F)(F)F)c3)nc2CCC(=O)N(C)C)cc1OC` [E65] was tested, and the EC50 was 70.8 nM and the Pam type was 4.
`CN(C)C(=O)CCc1nc(Nc2ccc(F)c(F)c2)nn1-c1ccc(OC(F)(F)F)cc1` [E66] showed an EC50 of 240 nM and a Pam type of 4.
`CN(C)C(=O)CCc1nc(Nc2ccc(F)c(F)c2)nn1-c1ccncc1` [E67] was tested, and the EC50 was 447 nM and the Pam type was 4.
Molecule `CN(C)C(=O)CCc1nc(Nc2ccc(F)c(C(F)(F)F)c2)nn1-c1ccncc1` [E68] has an EC50 of 105 nM.
For `CN(C)C(=O)CCc1nc(Nc2cccc(OC(F)(F)F)c2)nn1-c1ccncc1` [E69], the EC50 was 324 nM.
With `CN(C)C(=O)CCc1nc(Nc2cccc(OC(F)(F)F)c2)nn1-c1cccnc1` [E71] the EC50 was 617 nM and the Pam type was 4.
In the case of `CN(C)C(=O)CCc1nc(Nc2ccc(F)c(C(F)(F)F)c2)nn1-c1cccnc1` [E72], the EC50 is reported as 339 nM.
`CN(C)C(=O)CCc1nc(Nc2ccc(F)c(C(F)(F)F)c2)nn1-c1ccc2c(c1)OCCO2` [E77] was tested, and the EC50 was 39.8 nM and the Pam type was 4.
`O=C(CCc1nc(Nc2cccc(OC(F)(F)F)c2)nn1-c1cccnc1)N1CCCC1` [E78] gave an EC50 of 309 nM.
`O=C(CCc1nc(Nc2cccc(OC(F)(F)F)c2)nn1-c1cccnc1)N1CCC(O)C1` (stereo not shown) [E79] was tested, and the EC50 was 1260 nM.
`CCOC(=O)CCc1nc(Nc2cccc(OC(F)(F)F)c2)nn1-c1cccnc1` [E108] showed an EC50 of 1350 nM.
Molecule `CCOC(=O)CCc1nc(Nc2ccc(F)c(F)c2)nn1-c1ccc2c(c1)OCCO2` [E114] has an EC50 of 151 nM.
With `CCOC(=O)CCc1nc(Nc2ccc(F)c(C(F)(F)F)c2)nn1-c1ccc2c(c1)OCCO2` [E115] the EC50 was 158 nM.
With `Cc1ccc(-n2nc(Nc3ccc4c(c3)OC(F)(F)O4)nc2CCC(=O)N(C)C)cn1` [E117] the EC50 was 191 nM and the Pam type was 4.
In the case of `CC[C@H](O)Cc1nc(Nc2ccc(F)c(F)c2F)nn1-c1cc(C)nc(C)c1` [E127, (alphaS)-1-(2,6-dimethyl-4-pyridinyl)-alpha-ethyl-3-[(2,3,4-trifluorophenyl)amino]-1H-1,2,4-triazole-5-ethanol], the EC50 is reported as 269 nM and the Pam type is reported as 2.
For `CC[C@H](O)Cc1nc(Nc2ccc(F)c(F)c2F)nn1-c1ccnc(C)c1` [E130, (alphaS)-alpha-ethyl-1-(2-methyl-4-pyridinyl)-3-[(2,3,4-trifluorophenyl)amino]-1H-1,2,4-triazole-5-ethanol], the EC50 was 269 nM and the Pam type was 2.
`CCNc1cc(-n2nc(Nc3ccc(F)c(F)c3)nc2C[C@@H](O)CC)ccn1` [E136] was tested, and the EC50 was 155 nM and the Pam type was 3.
`CN(C)C(=O)CCc1nc(Nc2cc(F)c(F)c(Br)c2)nn1-c1ccc2c(c1)OCCO2` [E151] showed an EC50 of 38 nM and a Pam type of 4.
Molecule `Cc1cc(-n2nc(Nc3cccc(Cl)c3F)nc2CC(=O)NCC2CC2)cc(C)n1` [E154] has an EC50 of 219 nM and a Pam type of 2.
Work on `COc1ccc(-n2nc(Nc3cc(F)c(F)c(Br)c3)nc2CCC(=O)N(C)C)cc1` [E155] yielded an EC50 of 28.8 nM and a Pam type of 1.
In the case of `CCNC(=O)Cc1nc(Nc2ccc3c(c2)OC(F)(F)O3)nn1-c1cc(C)ncc1C` [E163], the EC50 is reported as 2510 nM and the Pam type is reported as 4.
With `Cc1cc(-n2nc(Nc3ccc(F)c(F)c3)nc2CC(=O)NC2CCC2)cc(C)n1` [E169] the EC50 was 295 nM and the Pam type was 2.
Molecule `CN(C)C(=O)CCc1nc(Nc2cccc(OC(F)(F)F)c2)nn1-c1ccc2c(c1)OCCO2` [E170] has an EC50 of 39.8 nM and a Pam type of 4.
In the case of `CC[C@H](O)Cc1nc(Nc2cccc(Cl)c2F)nn1-c1cc(C)nc(C)c1` [E172], the EC50 is reported as 302 nM and the Pam type is reported as 2.
`CN(C)C(=O)CCc1nc(Nc2ccc3c(c2)OC(F)(F)O3)nn1-c1ccc2c(c1)OCCO2` [E176] gave an EC50 of 26.9 nM and a Pam type of 4.
`COc1ccc(-n2nc(Nc3ccc4c(c3)OC(F)(F)O4)nc2CCC(=O)N(C)C)cc1` [E178] showed an EC50 of 36.3 nM and a Pam type of 4.
In the case of `CC[C@H](O)Cc1nc(Nc2cc(F)cc(OC)c2)nn1-c1ccnc(C)c1` [E186, (alphaS)-alpha-ethyl-3-[(3-fluoro-5-methoxyphenyl)amino]-1-(2-methyl-4-pyridinyl)-1H-1,2,4-triazole-5-ethanol], the EC50 is reported as 1020 nM and the Pam type is reported as 4.
`CC[C@H](O)Cc1nc(Nc2cc(F)cc(OC)c2)nn1-c1cc(C)nc(C)c1` [E190, (alphaS)-1-(2,6-dimethyl-4-pyridinyl)-alpha-ethyl-3-[(3-fluoro-5-methoxyphenyl)amino]-1H-1,2,4-triazole-5-ethanol] showed an EC50 of 398 nM and a Pam type of 2.
Work on `CC[C@H](O)Cc1nc(Nc2ccc(OC)cc2)nn1-c1cc(C)nc(C)c1` [E203] yielded an EC50 of 1350 nM and a Pam type of 2.
`CC[C@H](O)Cc1nc(Nc2cccc(C(F)(F)F)c2)nn1-c1ccnc(C)c1` [E204] was tested, and the EC50 was 562 nM and the Pam type was 0.
`CC[C@H](O)Cc1nc(Nc2cc(Cl)cc(OC)c2)nn1-c1cc(C)nc(C)c1` [E205, (alphaS)-3-[(3-chloro-5-methoxyphenyl)amino]-1-(2,6-dimethyl-4-pyridinyl)-alpha-ethyl-1H-1,2,4-triazole-5-ethanol] showed an EC50 of 155 nM and a Pam type of 2.
`CC[C@H](O)Cc1nc(Nc2cc(Cl)cc(OC)c2)nn1-c1ccnc(C)c1` [E206] was tested, and the EC50 was 170 nM and the Pam type was 4.
